The results in this text go back to US10828301B2, “2,4-pyrimidinediamine compounds and their uses” (Rigel Pharmaceuticals, Inc, priority 2002, dated 2020).

Assay [1] concerns cultured human mast cells (CHMC). The assay can be described thus: CHMC low cell density IgE activation: tryptase and LTC4 assays. It is filed as cell-based. The procedure, abridged:
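Cultured human mast cells at low density (1000-1500 per well) rested 1 h at 37° C, then stimulated with anti-IgE for 30 min at 37° C. Supernatant tryptase measured with fluorogenic substrate (30 min, room temperature); LTC4 quantified by ELISA on diluted supernatant.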

Assay [2] shares this test system. The assay is described as follows: CHMC low cell density ionomycin activation: tryptase assay. It is filed as cell-based. The following applies: read-out: CHMC Ionomycin Tryptase.
[3] abbreviates: Homo sapiens, Mast cell, Low Density CHMC, anti-IgE activation, tryptase readout, read-out: CHMC anti-IgE Tryptase.
Where [4] appears, read: Homo sapiens, Mast cell, Low Density CHMC, ionomycin activation, tryptase readout.
The mark [5] stands for this setting: Low Density CHMC, anti-IgE activation, tryptase readout, read-out: CHMC anti-IgE Tryptase.
Where [6] appears, read: Low Density CHMC, ionomycin activation, tryptase readout.

Structures are written as SMILES.

On to `Cc1cc(Nc2ncc(F)c(Nc3ccc4c(c3)OCCO4)n2)cc(C(F)(F)F)c1` [Compound R926895, N4-(3,4-Ethylenedioxyphenyl)-5-fluoro-N2-(3-methyl-5-trifluoromethylphenyl)-2,4-pyrimidinediamine], for which the IC50 was 0.339 µM in assay [1] (setting [3]) and > 10 µM in assay [2] (setting [4]).
As to `CNC(=O)C=Nc1cccc(Nc2ncc(F)c(Nc3cccc(NCCO)c3)n2)c1` [Compound R950233, 5-Fluoro-N4-[3-(2-hydroxyethylamino)phenyl]-N2-[3-(N-methylamino)carbonylmethyleneaminophenyl]-2,4-pyrimidinediamine], the results for the IC50 in assay [1] (setting [3]) and in assay [2] (setting [4]) were 0.98 µM and > 10 µM, respectively.
`Brc1cnc(Nc2ccc3c(c2)OCCO3)nc1Nc1ccc2c(c1)OCCO2` [Compound R925771, N2,N4-Bis(3,4-ethylenedioxyphenyl)-5-bromo-2,4-pyrimidinediamine]: the IC50 in assay [1] (Homo sapiens, Mast cell, Low Density CHMC, anti-IgE activation, LTC4 readout, read-out: CHMC anti-IgE LTC4) is 0.22 µM; in assay [1] (setting [3]) it was 0.5 µM; in assay [2] (setting [4]) it was 2.8 µM.
As to `N#Cc1cccc(Nc2nc(Nc3cccc(O)c3)ncc2F)c1` [Compound R945109, N4-(3-Cyanophenyl)-5-fluoro-N2-(3-hydroxyphenyl)-2,4-pyrimidinediamine], the IC50 was 1.02 µM in assay [1] (setting [3]) and > 10 µM in assay [2] (setting [4]).
`COC(=O)c1cc(Nc2ncc(F)c(Nc3cccc(O)c3)n2)ccc1OC` [Compound R940301, 5-Fluoro-N4-(3-hydroxyphenyl)-N2-(3-methyloxycarbonyl-4-methoxyphenyl)-2,4-pyrimidinediamine]: the values for the IC50 in assay [1] (setting [3]) and in assay [2] (setting [4]) were 1.98 µM and > 10 µM, respectively.
The corresponding values for `COc1ccc(Nc2ccnc(Nc3ccc(OC)c(-c4ccccc4)c3)n2)cc1-c1ccccc1` [Compound R925806, N2,N4-Bis(4-methoxy-3-phenylphenyl)-2,4-pyrimidinediamine] are > 10 µM and > 10 µM.
`Oc1cccc(Nc2nc(NCC3COc4ccccc4O3)ncc2F)c1` (stereo not drawn) [Compound R950214, N2-(2,3-Dihydro-1,4-benzodioxin-2-ylmethyl)-5-fluoro-N4-(3-hydroxyphenyl)-2,4-pyrimidinediamine]: the results for the IC50 in assay [1] (setting [3]) and in assay [2] (setting [4]) were 10 µM and > 10 µM, respectively.
The corresponding values for `Brc1cnc(Nc2cccc(-c3ccccc3)c2)nc1Nc1cccc(-c2ccccc2)c1` [Compound R925803, N2,N4-Bis(3-phenylphenyl)-5-bromo-2,4-pyrimidinediamine] are > 10 µM and > 10 µM.
The corresponding values for `Fc1cnc(NCCc2ccccc2)nc1Nc1ccc2c(c1)OCCO2` (racemic) [Compound R908697, (±)-N4-(3,4-Ethylenedioxyphenyl)-5-fluoro-N2-(2-phenylethyl)-2,4-pyrimidinediamine] are > 10 µM and > 10 µM.
As to `O=[N+]([O-])c1cc(Nc2ncc(F)c(Nc3ccc(Cl)c([N+](=O)[O-])c3)n2)ccc1Cl` [Compound R950149, N2,N4-Bis(4-chloro-3-nitrophenyl)-5-fluoro-2,4-pyrimidinediamine], the IC50 in assay [1] (Homo sapiens, Mast cell, read-out: CHMC anti-IgE Tryptase) was 10 µM; in assay [2] (Homo sapiens, Mast cell), > 10 µM.
Regarding `CNC(=O)c1cc(Nc2nc(NC)ncc2F)ccc1OC` [Compound R940304, 5-Fluoro-N4-(3-methylaminocarbonyl-4-methoxyphenyl)-N2-methyl-2,4-pyrimidinediamine], the IC50 in assay [1] (setting [3]) and in assay [2] (setting [4]) was > 10 µM each time.
On to `OCCOc1cccc(Nc2nc(Nc3ccc4c(c3)OCCO4)ncc2F)c1` [Compound R935176, N2-(3,4-Ethylenedioxyphenyl)-5-fluoro-N4-[3-(2-hydroxyethoxy)phenyl]-2,4-pyrimidinediamine], for which the IC50 in assay [1] (setting [3]) was 1.17 µM; in assay [2] (setting [4]), > 10 µM.
Regarding `COC(=O)c1cc2cc(Nc3ncc(F)c(Nc4ccc(C(C)(C)C)cc4)n3)ccc2o1` [Compound R926477, N4-(4-tert-Butylphenyl)-5-fluoro-N2-(2-methoxycarbonylbenzofuran-5-yl)-2,4-pyrimidinediamine], the IC50 in assay [1] (setting [3]) is 0.27 µM; in assay [2] (setting [4]), > 10 µM.
Regarding `CNC(=O)Cn1ncc2ccc(Nc3nc(Nc4ccc5c(c4)OCCO5)ncc3F)cc21` [Compound R935225, N2-(3,4-Ethylenedioxyphenyl)-5-fluoro-N4-[1-(N-methylaminocarbonyl)methyl-indazoline-6-yl]-2,4-pyrimidinediamine], the IC50 is 6.5 µM in assay [1] (setting [5]) and > 10 µM in assay [2] (setting [6]).
Take `Cc1cc(CNc2nc(Nc3cccc(O)c3)ncc2F)c(C)o1` [Compound R945151, N4-[(2,5-Dimethyl-3-furyl)methyl]-5-fluoro-N2-(3-hydroxyphenyl)-2,4-pyrimidinediamine]: the values for the IC50 in assay [1] (setting [3]) and in assay [2] (setting [4]) were 4.07 µM and > 10 µM, respectively.
On to `COCCOc1cccc(Nc2ncc(F)c(Nc3cccc(OCCOC)c3)n2)c1` [Compound R935076, N2,N4-Bis[3-(2-methoxyethyl)oxyphenyl]-5-fluoro-2,4-pyrimidinediamine], for which the IC50 in assay [1] (setting [3]) was 4.15 µM; in assay [2] (setting [4]) it was > 10 µM.
As to `O=C(O)C1CCC(Nc2nc(Nc3ccc4c(c3)OCCO4)ncc2F)CC1` (stereo not drawn) [Compound R925795, N4-(4-Carboxycyclohexyl)-N2-(3,4-ethylenedioxyphenyl)-5-fluoro-2,4-pyrimidinediamine], the IC50 in assay [1] (setting [3]) and in assay [2] (setting [4]) was > 10 µM in each case.
Turning to `Fc1cnc(Nc2ccc3[nH]ccc3c2)nc1Nc1ccc2c(c1)OCCO2` [Compound R926748, N4-(3,4-Ethylenedioxyphenyl)-5-fluoro-N2-[(1H)-indol-5-yl]-2,4-pyrimidinediamine], the values for the IC50 in assay [1] (setting [3]) and in assay [2] (setting [4]) were 0.345 µM and > 10 µM, respectively.
The corresponding values for `Cc1cc(Nc2nc(Nc3cccc(O)c3)ncc2F)cc(Cl)c1O` [Compound R940235, N4-(3-Chloro-4-hydroxy-5-methylphenyl)-5-fluoro-N2-(3-hydroxyphenyl)-2,4-pyrimidinediamine] are 0.8 µM and > 10 µM.
For the compound `OCCOc1ccc(Nc2ncc(F)c(Nc3ccc4c(c3)N=CCO4)n2)cc1` [Compound R909248, N4-(1,4-Benzoxazin-6-yl)-5-fluoro-N2-[4-(2-hydroxyethyl)oxyphenyl]-2,4-pyrimidinediamine], the IC50 is 3.58 µM in assay [1] (setting [3]) and > 10 µM in assay [2] (setting [4]).
The corresponding values for `Oc1cccc(Nc2ncc(F)c(Nn3cccc3)n2)c1` [Compound R935278, 5-Fluoro-N2-(3-hydroxyphenyl)-N4-(1H-pyrrol-1-yl)-2,4-pyrimidinediamine] are 4.75 µM and > 10 µM.
Take `Oc1cccc(Nc2nc(Nc3ccc4cc[nH]c4c3)ncc2F)c1` [Compound R926751, 5-Fluoro-N4-(3-hydroxyphenyl)-N2-[(1H)-indol-6-yl]-2,4-pyrimidinediamine]: the IC50 in assay [1] (setting [3]) was 0.598 µM; in assay [2] (setting [4]) it was > 10 µM.
Regarding `COc1cc(Nc2ncc(F)c(Nc3cccc(O)c3)n2)cc(OC)c1OC` [Compound R926761, 5-Fluoro-N4-(3-hydroxyphenyl)-N2-(3,4,5-trimethoxyphenyl)-2,4-pyrimidinediamine], the IC50 in assay [1] (setting [3]) was 0.245 µM; in assay [2] (setting [4]) it was > 10 µM.
As to `Fc1cnc(NCC2COc3ccccc3O2)nc1Nc1ccc2c(c1)OCCO2` (stereo not drawn) [Compound R950206, N2-(2,3-Dihydro-1,4-benzodioxin-2-ylmethyl)-N4-(3,4-ethylenedioxyphenyl)-5-fluoro-2,4-pyrimidinediamine], the IC50 is 3.66 µM in assay [1] (setting [3]) and > 10 µM in assay [2] (setting [4]).
In the case of `CC(C)(C)OC(=O)Nc1cccc(Nc2ncc(F)c(Nc3cccc(NC(=O)OC(C)(C)C)c3)n2)c1` [Compound R950108, N2,N4-Bis[3-(tert-butoxycarbonylamino)phenyl]-5-fluoro-2,4-pyrimidinediamine], the IC50 in assay [1] (setting [3]) is 2.08 µM; in assay [2] (setting [4]), > 10 µM.
The corresponding values for `O=C1COc2cc(Nc3ncc(F)c(Nc4cccc(O)c4)n3)ccc2N1` [Compound R908699, N2-(1,4-Benzoxazin-3-on-7-yl)-5-fluoro-N4-(3-hydroxyphenyl)-2,4-pyrimidinediamine] are 0.217 µM and > 10 µM.
With `COc1ccc(C)c(Nc2ncc(F)c(Nc3ccc4c(c3)OCCO4)n2)c1` [Compound R926896, N4-(3,4-Ethylenedioxyphenyl)-5-fluoro-N2-(5-methoxy-2-methylphenyl)-2,4-pyrimidinediamine], the IC50 in assay [1] (setting [3]) was 1.62 µM; in assay [2] (setting [4]), > 10 µM.
In the case of `Oc1cccc(Nc2nc(NCc3ccc4c(c3)OCCO4)ncc2F)c1` [Compound R945168, N2-(2,3-Dihydro-1,4-benzodioxin-6-ylmethyl)-5-fluoro-N4-(3-hydroxyphenyl)-2,4-pyrimidinediamine], the IC50 is 10 µM in assay [1] (setting [3]) and > 10 µM in assay [2] (setting [4]).
With `CNC(=O)Cn1ncc2ccc(Nc3nc(Nc4ccc(OC(C)C)cc4)ncc3F)cc21` [Compound R935224, 5-Fluoro-N2-(4-isopropoxyphenyl)-N4-[1-(N-methylaminocarbonyl)methyl-indazoline-6-yl]-2,4-pyrimidinediamine], the IC50 in assay [1] (setting [5]) is 4.58 µM; in assay [2] (setting [6]), > 10 µM.
For the compound `Oc1cccc(Nc2ncc(F)c(Nc3ccc4[nH]ccc4c3)n2)c1` [Compound R926932, 5-Fluoro-N2-(3-hydroxyphenyl)-N4-[(1H)-indol-5-yl]-2,4-pyrimidinediamine], the IC50 in assay [1] (setting [3]) is 0.31 µM; in assay [2] (setting [4]), > 10 µM.
The corresponding values for `O=[N+]([O-])c1cnc(Nc2ccc3c(c2)OC(F)(F)O3)nc1Nc1ccc2c(c1)OC(F)(F)O2` [Compound R940100, N2,N4-Bis-(2,2-difluoro-1,3-benzodioxol-5-yl)-5-nitro-2,4-pyrimidinediamine] are > 10 µM and > 10 µM.
